# According to the supplement of paper PMC10307832:
# Experiments:
# Assay in all cases: relative viability (nuclei count vs DMSO), 5 days (fraction); higher = more cells survive
# [1] = compound: CCN1CCN(c2ccc(Nc3cc(N(C)C(=O)Nc4c(Cl)c(OC)cc(OC)c4Cl)ncn3)cc2)CC1 [BGJ398] + Cc1nc(Nc2ncc(C(=O)Nc3c(C)cccc3Cl)s2)cc(N2CCN(CCO)CC2)n1 [Dasatinib] (partner 0.075 µM)
# Method in brief: (§1)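 Relative viability was taken as the ratio of nuclei in treated wells to nuclei in vehicle wells. Lung cancer cell lines in 1536-well plates received compounds by pin tool one day after seeding, either one drug alone or a fixed anchor-drug dose plus five library-drug doses (not always all listed) in √10 steps. Nuclei were counted on 4× images after 5 days of treatment, and values are medians of duplicate plates.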
# [2] = compound: C1=CC2=NC=CN=C2C=C1/C=C/3\C(=O)NC(=O)S3 + O=C(CCCCCCC(=O)Nc1ccccc1)NO [Vorinostat] (partner 1 µM)
# Method in brief: as §1
# [3] = compound: CCN1CCN(c2ccc(Nc3cc(N(C)C(=O)Nc4c(Cl)c(OC)cc(OC)c4Cl)ncn3)cc2)CC1 [BGJ398] + C[C@]1(O)C[C@@H](c2nc(-c3ccc4ccc(-c5ccccc5)nc4c3)c3c(N)nccn32)C1 [Linsitinib] (partner 1 µM)
# Method in brief: as §1
# [4] = compound: C1=CC2=NC=CN=C2C=C1/C=C/3\C(=O)NC(=O)S3 + Cc1nc(NC(=O)N2CCC[C@H]2C(N)=O)sc1-c1ccnc(C(C)(C)C(F)(F)F)c1 [Alpelisib] (partner 2 µM)
# Method in brief: as §1
cell line,measurement,setting,value
UMC-11,relative viability,[1]; first compound 0.01 µM,0.463
same,relative viability,[1]; first compound 0.03162 µM,0.465
same,relative viability,[1]; first compound 0.1 µM,0.51
same,relative viability,[1]; first compound 0.3162 µM,0.454
same,relative viability,[1]; first compound 1 µM,0.443
same,relative viability,[2]; first compound 0.02 µM,0.373
same,relative viability,[2]; first compound 0.06325 µM,0.345
same,relative viability,[2]; first compound 0.2 µM,0.485
same,relative viability,[2]; first compound 0.6325 µM,0.316
same,relative viability,[2]; first compound 2 µM,0.394
same,relative viability,[3]; first compound 0.01 µM,1.01
same,relative viability,[3]; first compound 0.03162 µM,0.982
same,relative viability,[3]; first compound 0.1 µM,1.04
same,relative viability,[3]; first compound 0.3162 µM,1.03
same,relative viability,[3]; first compound 1 µM,1.01
same,relative viability,[4]; first compound 0.02 µM,0.987
same,relative viability,[4]; first compound 0.06325 µM,1.19
same,relative viability,[4]; first compound 0.2 µM,0.989
same,relative viability,[4]; first compound 0.6325 µM,0.948
same,relative viability,[4]; first compound 2 µM,0.932
